Legend:
[1] = Crystal
[2] = Molar enthalpy of transition or fusion; conditions: Crystal
[3] = molar heat capacity at constant pressure; conditions: 101.33 kPa

CCCCCCCCCC(=O)OC [methyl decanoate]
Conditions | Molar enthalpy of transition or fusion [kcal/mol] | Triple point temperature [K]
[1] | – | 260.33
[2] | 8.58 | –

[3]
Conditions | molar heat capacity at constant pressure [J/K/mol]
5 K, Crystal | 0.45
10 K, Crystal | 3.7
20 K, Crystal | 20.01
30 K, Crystal | 37.87
40 K, Crystal | 57.28
50 K, Crystal | 75.63
60 K, Crystal | 91.46
70 K, Crystal | 105.95
80 K, Crystal | 119.09
90 K, Crystal | 131.08
100 K, Crystal | 141.62
110 K, Crystal | 151.65
120 K, Crystal | 160.63
130 K, Crystal | 169.23
140 K, Crystal | 177.35
150 K, Crystal | 185.25
160 K, Crystal | 192.99
170 K, Crystal | 200.77
180 K, Crystal | 209.01
190 K, Crystal | 217.44
200 K, Crystal | 226.26
210 K, Crystal | 234.91
220 K, Crystal | 245.06
230 K, Crystal | 256.05
240 K, Crystal | 269.17
250 K, Crystal | 300.63
270 K, Liquid | 361.09
280 K, Liquid | 368.72
290 K, Liquid | 372.12
300 K, Liquid | 376.14
310 K, Liquid | 380.31
320 K, Liquid | 385.19
330 K, Liquid | 389.78
340 K, Liquid | 394.95
350 K, Liquid | 400.2

CCCCCCCCCCCC(=O)OC [methyl dodecanoate]
Conditions | Molar enthalpy of transition or fusion [kcal/mol] | Triple point temperature [K]
[1] | – | 278.18
[2] | 10.3 | –

[3]
Conditions | molar heat capacity at constant pressure [J/K/mol]
5 K, Crystal | 0.5
10 K, Crystal | 4.31
20 K, Crystal | 19.62
30 K, Crystal | 40.21
40 K, Crystal | 63.08
50 K, Crystal | 85.07
60 K, Crystal | 103.02
70 K, Crystal | 119.02
80 K, Crystal | 134.57
90 K, Crystal | 148.81
100 K, Crystal | 160.46
110 K, Crystal | 171.83
120 K, Crystal | 181.94
130 K, Crystal | 191.82
140 K, Crystal | 201.16
150 K, Crystal | 209.76
160 K, Crystal | 218.85
170 K, Crystal | 227.97
180 K, Crystal | 237.26
190 K, Crystal | 246.66
200 K, Crystal | 256.21
210 K, Crystal | 265.84
220 K, Crystal | 277.21
230 K, Crystal | 288.57
240 K, Crystal | 299.95
250 K, Crystal | 315.69
260 K, Crystal | 335.52
270 K, Crystal | 392.98
280 K, Liquid | 428
290 K, Liquid | 432.76
300 K, Liquid | 438.82
310 K, Liquid | 443.32
320 K, Liquid | 448.38
330 K, Liquid | 453.83
340 K, Liquid | 460.08
350 K, Liquid | 467.86

CCCCCCCCCCCCCCCCCCCC(=O)OC [methyl eicosanoate]
Conditions | Molar enthalpy of transition or fusion [kcal/mol] | Triple point temperature [K]
[1] | – | 319.48
[2] | 18.83 | –

[3]
Conditions | molar heat capacity at constant pressure [J/K/mol]
5 K, Crystal | 0.75
10 K, Crystal | 5.46
20 K, Crystal | 28.85
30 K, Crystal | 56.97
40 K, Crystal | 89.89
50 K, Crystal | 122.31
60 K, Crystal | 149.98
70 K, Crystal | 176.8
80 K, Crystal | 199.8
90 K, Crystal | 220.14
100 K, Crystal | 235.76
110 K, Crystal | 255.12
120 K, Crystal | 271.01
130 K, Crystal | 285.48
140 K, Crystal | 299.45
150 K, Crystal | 313.11
160 K, Crystal | 326.52
170 K, Crystal | 339.86
180 K, Crystal | 353.31
190 K, Crystal | 366.99
200 K, Crystal | 381.11
210 K, Crystal | 395.71
220 K, Crystal | 411.05
230 K, Crystal | 427.04
240 K, Crystal | 443.77
250 K, Crystal | 461.58
260 K, Crystal | 480.5
270 K, Crystal | 501.55
280 K, Crystal | 525.09
290 K, Crystal | 551.06
300 K, Crystal | 585.33
330 K, Liquid | 714.47
340 K, Liquid | 722.28
350 K, Liquid | 732.2

CCCCCCCCCCCCCCCCC(=O)OC [methyl heptadecanoate]
Conditions | Molar enthalpy of transition or fusion [kcal/mol] | Triple point temperature [K]
[1] | – | 303.09
[2] | 15.27 | –

[3]
Conditions | molar heat capacity at constant pressure [J/K/mol]
5 K, Crystal | 0.56
10 K, Crystal | 4.36
20 K, Crystal | 23.27
30 K, Crystal | 48.82
40 K, Crystal | 77.97
50 K, Crystal | 106.88
60 K, Crystal | 131.71
70 K, Crystal | 154.68
80 K, Crystal | 175.53
90 K, Crystal | 192.9
100 K, Crystal | 208.51
110 K, Crystal | 224.09
120 K, Crystal | 238.4
130 K, Crystal | 252.69
140 K, Crystal | 265.74
150 K, Crystal | 275.72
160 K, Crystal | 284.57
170 K, Crystal | 302.09
180 K, Crystal | 313.76
190 K, Crystal | 326.38
200 K, Crystal | 340.04
210 K, Crystal | 355.66
220 K, Crystal | 367.89
230 K, Crystal | 382.88
240 K, Crystal | 399.49
250 K, Crystal | 418.37
260 K, Crystal | 438.62
270 K, Crystal | 456.93
280 K, Crystal | 480.24
290 K, Crystal | 517.76
310 K, Liquid | 599.17
320 K, Liquid | 605.44
330 K, Liquid | 609.25
340 K, Liquid | 615.4
350 K, Liquid | 622.81

CCCCCCCCCCCCCCCC(=O)OC [methyl hexadecanoate]
Conditions | Triple point temperature [K]
[1], Adiabatic calorimetry | 302.71

Conditions | Molar enthalpy of transition or fusion [kcal/mol]
[2] | 14.35

[3]
Conditions | molar heat capacity at constant pressure [J/K/mol]
5 K, Crystal | 0.66
10 K, Crystal | 5.56
20 K, Crystal | 23.7
30 K, Crystal | 47.98
40 K, Crystal | 75.87
50 K, Crystal | 104.12
60 K, Crystal | 129.69
70 K, Crystal | 151.19
80 K, Crystal | 167.13
90 K, Crystal | 184.19
100 K, Crystal | 198.32
110 K, Crystal | 213.49
120 K, Crystal | 226.5
130 K, Crystal | 238.62
140 K, Crystal | 250.27
150 K, Crystal | 261.54
160 K, Crystal | 272.73
170 K, Crystal | 284.03
180 K, Crystal | 295.27
190 K, Crystal | 306.8
200 K, Crystal | 318.65
210 K, Crystal | 330.97
220 K, Crystal | 343.93
230 K, Crystal | 357.74
240 K, Crystal | 372.37
250 K, Crystal | 388.24
260 K, Crystal | 405.39
270 K, Crystal | 423.81
280 K, Crystal | 448.6
290 K, Crystal | 482.7
300 K, Crystal | 740.48
310 K, Liquid | 570.55
320 K, Liquid | 576.47
330 K, Liquid | 583.02
340 K, Liquid | 590.14
350 K, Liquid | 597.66

CCCCCCCCCCCCCCCCCCC(=O)OC [methyl nonadecanoate]
Conditions | Molar enthalpy of transition or fusion [kcal/mol] | Triple point temperature [K]
[1] | – | 311.49
[2] | 16.95 | –

[3]
Conditions | molar heat capacity at constant pressure [J/K/mol]
5 K, Crystal | 0.69
10 K, Crystal | 5.1
20 K, Crystal | 26.27
30 K, Crystal | 55.13
40 K, Crystal | 87.37
50 K, Crystal | 117.8
60 K, Crystal | 143.77
70 K, Crystal | 168.98
80 K, Crystal | 190.79
90 K, Crystal | 210.18
100 K, Crystal | 228.66
110 K, Crystal | 244.31
120 K, Crystal | 259.07
130 K, Crystal | 273.22
140 K, Crystal | 286.84
150 K, Crystal | 300.17
160 K, Crystal | 313.53
170 K, Crystal | 327.31
180 K, Crystal | 339.52
190 K, Crystal | 353.2
200 K, Crystal | 367.35
210 K, Crystal | 380.94
220 K, Crystal | 397.52
230 K, Crystal | 413.93
240 K, Crystal | 432.32
250 K, Crystal | 450.65
260 K, Crystal | 469.65
270 K, Crystal | 491.94
280 K, Crystal | 518.01
290 K, Crystal | 549.43
300 K, Crystal | 586.63
320 K, Liquid | 691.61
330 K, Liquid | 677.17
340 K, Liquid | 684.76
350 K, Liquid | 693.78

CCCCCCCCC(=O)OC [methyl nonanoate]
Conditions | Molar enthalpy of transition or fusion [kcal/mol] | Triple point temperature [K]
[1] | – | 238.72
[2] | 6.53 | –

[3]
Conditions | molar heat capacity at constant pressure [J/K/mol]
5 K, Crystal | 0.39
10 K, Crystal | 2.96
20 K, Crystal | 17.17
30 K, Crystal | 34.66
40 K, Crystal | 53.39
50 K, Crystal | 71.31
60 K, Crystal | 86.46
70 K, Crystal | 100.55
80 K, Crystal | 113.08
90 K, Crystal | 123.98
100 K, Crystal | 134.32
110 K, Crystal | 143.79
120 K, Crystal | 152.28
130 K, Crystal | 160.47
140 K, Crystal | 168.48
150 K, Crystal | 175.96
160 K, Crystal | 183.23
170 K, Crystal | 190.85
180 K, Crystal | 198.49
190 K, Crystal | 206.56
200 K, Crystal | 215.27
210 K, Crystal | 224.62
220 K, Crystal | 236.53
230 K, Crystal | 265.31
240 K, Liquid | 330.8
250 K, Liquid | 330.84
260 K, Liquid | 333.42
270 K, Liquid | 335.9
280 K, Liquid | 338.72
290 K, Liquid | 342.82
300 K, Liquid | 346.27
310 K, Liquid | 350.79
320 K, Liquid | 354.3
330 K, Liquid | 359.1
340 K, Liquid | 363.82
350 K, Liquid | 368.16

Source: the NIST ThermoML archive (doi:10.1021/je0499364)
